From the NIST ThermoML archive (doi:10.1021/je700021f)
Numbers after ± are expanded uncertainties.

Key:
[1] = xn = mol fraction of the nth substance listed; settings: 101 kPa, Liquid, Pulse-echo method, x1 = 1
[2] = 101 kPa, Liquid, Pulse-echo method

CCCCCCCCC [nonane] + CCCCCCCCCCl
[1]
Settings	speed of sound [m/s]
293.15 K	1227.3 ± 3.2
298.15 K	1207.2 ± 3.2
303.15 K	1187.2 ± 3.2
308.15 K	1167.3 ± 3.1
313.15 K	1147.5 ± 3.1
318.15 K	1127.8 ± 3.1
323.15 K	1108.2 ± 3.1
328.15 K	1088.7 ± 3
333.15 K	1069.3 ± 3
338.15 K	1050 ± 3
343.15 K	1030.8 ± 2.9
348.15 K	1011.8 ± 2.9
353.15 K	992.8 ± 2.9
358.15 K	973.9 ± 2.9
363.15 K	955.2 ± 2.8
368.15 K	936.5 ± 2.8
373.15 K	917.9 ± 2.8
378.15 K	899.5 ± 2.8
383.15 K	881.1 ± 2.7
388.15 K	862.9 ± 2.7
393.15 K	844.7 ± 2.7
398.15 K	826.7 ± 2.7
403.15 K	808.8 ± 2.6
408.15 K	790.9 ± 2.6
413.15 K	773.2 ± 2.6
418.15 K	755.6 ± 2.6
423.15 K	738 ± 2.5

CCCCCCCCCCl [1-chlorononane]
[2]
Settings	speed of sound [m/s]
293.15 K	1297.2 ± 3.4
298.15 K	1278.2 ± 3.3
303.15 K	1259.5 ± 3.3
308.15 K	1240.9 ± 3.3
313.15 K	1222.5 ± 3.2
318.15 K	1204.3 ± 3.2
323.15 K	1186.3 ± 3.2
328.15 K	1168.4 ± 3.1
333.15 K	1150.7 ± 3.1
338.15 K	1133.2 ± 3.1
343.15 K	1115.9 ± 3.1
348.15 K	1098.8 ± 3
353.15 K	1081.9 ± 3
358.15 K	1065.1 ± 3
363.15 K	1048.5 ± 3
368.15 K	1032.2 ± 2.9
373.15 K	1015.9 ± 2.9
378.15 K	999.1 ± 2.9
383.15 K	982.7 ± 2.9
388.15 K	966.4 ± 2.8
393.15 K	950.3 ± 2.8
398.15 K	934.3 ± 2.8
403.15 K	918.4 ± 2.8
408.15 K	902.6 ± 2.8
413.15 K	887 ± 2.7
418.15 K	871.4 ± 2.7
423.15 K	856 ± 2.7

CCCCCCCCC [nonane]
[2]
Settings	speed of sound [m/s]
293.15 K	1227.3 ± 3.2
298.15 K	1207.2 ± 3.2
303.15 K	1187.2 ± 3.2
308.15 K	1167.3 ± 3.1
313.15 K	1147.5 ± 3.1
318.15 K	1127.8 ± 3.1
323.15 K	1108.2 ± 3.1
328.15 K	1088.7 ± 3
333.15 K	1069.3 ± 3
338.15 K	1050 ± 3
343.15 K	1030.8 ± 2.9
348.15 K	1011.8 ± 2.9
353.15 K	992.8 ± 2.9
358.15 K	973.9 ± 2.9
363.15 K	955.2 ± 2.8
368.15 K	936.5 ± 2.8
373.15 K	917.9 ± 2.8
378.15 K	899.5 ± 2.8
383.15 K	881.1 ± 2.7
388.15 K	862.9 ± 2.7
393.15 K	844.7 ± 2.7
398.15 K	826.7 ± 2.7
403.15 K	808.8 ± 2.6
408.15 K	790.9 ± 2.6
413.15 K	773.2 ± 2.6
418.15 K	755.6 ± 2.6
423.15 K	738 ± 2.5
